According to the supplement of paper PMC10307832:

What was measured:
Experiment in all cases: relative viability (nuclei count vs DMSO), 5 days (fraction); higher = more cells survive
NCI-H1793 = test system: NCI-H1793
Procedure, shortened: (§1)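 Lung cancer cell lines were seeded in 1536-well plates and dosed by pin tool the next day, with either a single drug or a fixed anchor-drug dose combined with five library-drug doses (not always all listed) spaced in √10 steps. Five days later, one step fixed the cells and stained their nuclei (final 0.05% Triton X-100, 1% formaldehyde, 1 ug/ml Hoechst), and nuclei were counted on 4× images. Relative viability is the nuclei count in treated wells divided by the count in vehicle wells, and each value is the median of duplicate plates.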

LC-2-ad = test system: LC-2-ad
Procedure, shortened: as §1

EPLC-272H = test system: EPLC-272H
Procedure, shortened: as §1

NCI-H1944 = test system: NCI-H1944
Procedure, shortened: as §1

NCI-H2342 = test system: NCI-H2342
Procedure, shortened: as §1

LK-2 = test system: LK-2
Procedure, shortened: as §1

SW 1573 = test system: SW 1573
Procedure, shortened: as §1

NCI-H1734 = test system: NCI-H1734
Procedure, shortened: as §1

NCI-H2023 = test system: NCI-H2023
Procedure, shortened: as §1

NCI-H322M = test system: NCI-H322M
Procedure, shortened: as §1

ABC-1 = test system: ABC-1
Procedure, shortened: as §1

NCI-H441 = test system: NCI-H441
Procedure, shortened: as §1

NCI-H838 = test system: NCI-H838
Procedure, shortened: as §1

NCI-H522 = test system: NCI-H522
Procedure, shortened: as §1

A-427 = test system: A-427
Procedure, shortened: as §1

NCI-H1915 = test system: NCI-H1915
Procedure, shortened: as §1

UMC-11 = test system: UMC-11
Procedure, shortened: as §1

NCI-H647 = test system: NCI-H647
Procedure, shortened: as §1

RERF-LC-KJ = test system: RERF-LC-KJ
Procedure, shortened: as §1

NCI-H358 = test system: NCI-H358
Procedure, shortened: as §1

NCI-H2347 = test system: NCI-H2347
Procedure, shortened: as §1

NCI-H2009 = test system: NCI-H2009
Procedure, shortened: as §1

HCC-15 = test system: HCC-15
Procedure, shortened: as §1

SMILES: CN1CCN(CCOc2cc(OC3CCOCC3)c3c(Nc4c(Cl)ccc5c4OCO5)ncnc3c2)CC1 [Saracatinib] + Nc1ncn([C@H]2C[C@H](O)[C@@H](CO)O2)c(=O)n1 [Decitabine] (partner 2 µM)
- relative viability (NCI-H1793; first compound 0.02 µM): 0.543
- relative viability (NCI-H1793; first compound 0.2 µM): 0.338
- relative viability (NCI-H1793; first compound 0.6325 µM): 0.504
- relative viability (NCI-H1793; first compound 2 µM): 0.403
- relative viability (LC-2-ad; first compound 0.02 µM): 0.79
- relative viability (LC-2-ad; first compound 0.2 µM): 0.751
- relative viability (LC-2-ad; first compound 0.6325 µM): 0.779
- relative viability (LC-2-ad; first compound 2 µM): 0.789
- relative viability (EPLC-272H; first compound 0.02 µM): 0.388
- relative viability (EPLC-272H; first compound 0.2 µM): 0.361
- relative viability (EPLC-272H; first compound 0.6325 µM): 0.442
- relative viability (EPLC-272H; first compound 2 µM): 0.37
- relative viability (NCI-H1944; first compound 0.02 µM): 0.423
- relative viability (NCI-H1944; first compound 0.2 µM): 0.356
- relative viability (NCI-H1944; first compound 0.6325 µM): 0.434
- relative viability (NCI-H1944; first compound 2 µM): 0.371
- relative viability (NCI-H2342; first compound 0.02 µM): 0.791
- relative viability (NCI-H2342; first compound 0.2 µM): 0.677
- relative viability (NCI-H2342; first compound 0.6325 µM): 0.673
- relative viability (NCI-H2342; first compound 2 µM): 0.656
- relative viability (LK-2; first compound 0.02 µM): 0.337
- relative viability (LK-2; first compound 0.2 µM): 0.23
- relative viability (LK-2; first compound 0.6325 µM): 0.172
- relative viability (LK-2; first compound 2 µM): 0.201
- relative viability (SW 1573; first compound 0.02 µM): 0.512
- relative viability (SW 1573; first compound 0.2 µM): 0.481
- relative viability (SW 1573; first compound 0.6325 µM): 0.458
- relative viability (SW 1573; first compound 2 µM): 0.434
- relative viability (NCI-H1734; first compound 0.02 µM): 0.524
- relative viability (NCI-H1734; first compound 0.6325 µM): 0.491
- relative viability (NCI-H1734; first compound 2 µM): 0.475
- relative viability (NCI-H2023; first compound 0.02 µM): 0.245
- relative viability (NCI-H2023; first compound 0.2 µM): 0.176
- relative viability (NCI-H2023; first compound 0.6325 µM): 0.204
- relative viability (NCI-H2023; first compound 2 µM): 0.222
- relative viability (NCI-H322M; first compound 0.02 µM): 0.79
- relative viability (NCI-H322M; first compound 0.2 µM): 0.473
- relative viability (NCI-H322M; first compound 0.6325 µM): 0.659
- relative viability (NCI-H322M; first compound 2 µM): 0.409
- relative viability (ABC-1; first compound 0.02 µM): 1.01
- relative viability (ABC-1; first compound 0.2 µM): 1.04
- relative viability (ABC-1; first compound 0.6325 µM): 1.06
- relative viability (ABC-1; first compound 2 µM): 1.02
- relative viability (NCI-H441; first compound 0.02 µM): 0.221
- relative viability (NCI-H441; first compound 0.2 µM): 0.232
- relative viability (NCI-H441; first compound 0.6325 µM): 0.212
- relative viability (NCI-H441; first compound 2 µM): 0.243
- relative viability (NCI-H838; first compound 0.02 µM): 0.45
- relative viability (NCI-H838; first compound 0.2 µM): 0.417
- relative viability (NCI-H838; first compound 0.6325 µM): 0.467
- relative viability (NCI-H838; first compound 2 µM): 0.411
- relative viability (NCI-H522; first compound 0.02 µM): 0.737
- relative viability (NCI-H522; first compound 0.2 µM): 0.665
- relative viability (NCI-H522; first compound 0.6325 µM): 0.705
- relative viability (NCI-H522; first compound 2 µM): 0.627
- relative viability (A-427; first compound 0.02 µM): 0.533
- relative viability (A-427; first compound 0.2 µM): 0.511
- relative viability (A-427; first compound 0.6325 µM): 0.593
- relative viability (A-427; first compound 2 µM): 0.526
- relative viability (NCI-H1915; first compound 0.02 µM): 0.245
- relative viability (NCI-H1915; first compound 0.2 µM): 0.264
- relative viability (NCI-H1915; first compound 0.6325 µM): 0.255
- relative viability (NCI-H1915; first compound 2 µM): 0.237
- relative viability (UMC-11; first compound 0.02 µM): 0.686
- relative viability (UMC-11; first compound 0.2 µM): 0.667
- relative viability (UMC-11; first compound 0.6325 µM): 0.453
- relative viability (UMC-11; first compound 2 µM): 0.533
- relative viability (NCI-H647; first compound 0.02 µM): 0.438
- relative viability (NCI-H647; first compound 0.2 µM): 0.313
- relative viability (NCI-H647; first compound 0.6325 µM): 0.468
- relative viability (NCI-H647; first compound 2 µM): 0.433
- relative viability (RERF-LC-KJ; first compound 0.02 µM): 0.688
- relative viability (RERF-LC-KJ; first compound 0.2 µM): 0.657
- relative viability (RERF-LC-KJ; first compound 0.6325 µM): 0.734
- relative viability (RERF-LC-KJ; first compound 2 µM): 0.722
- relative viability (NCI-H358; first compound 0.02 µM): 0.224
- relative viability (NCI-H358; first compound 0.2 µM): 0.198
- relative viability (NCI-H358; first compound 0.6325 µM): 0.179
- relative viability (NCI-H358; first compound 2 µM): 0.146
- relative viability (NCI-H2347; first compound 0.02 µM): 0.629
- relative viability (NCI-H2347; first compound 0.2 µM): 0.538
- relative viability (NCI-H2347; first compound 0.6325 µM): 0.595
- relative viability (NCI-H2347; first compound 2 µM): 0.578
- relative viability (NCI-H2009; first compound 0.02 µM): 0.406
- relative viability (NCI-H2009; first compound 0.2 µM): 0.35
- relative viability (NCI-H2009; first compound 0.6325 µM): 0.35
- relative viability (NCI-H2009; first compound 2 µM): 0.322
- relative viability (HCC-15; first compound 0.02 µM): 0.73
- relative viability (HCC-15; first compound 0.2 µM): 0.62
- relative viability (HCC-15; first compound 0.6325 µM): 0.605
- relative viability (HCC-15; first compound 2 µM): 0.557
